In ChEMBL document CHEMBL1141099, “Discovery of N-(2,6-dimethylphenyl)-substituted semicarbazones as anticonvulsants: hybrid pharmacophore-based design” (2005):

Assays:
[1] = biological target: 4-aminobutyrate aminotransferase, mitochondrial (Rattus norvegicus) (UniProt P50554); assay: In vitro percentage inhibition activity against GABA-T enzyme at a concentration of 0.625 uM after 3 h
[2] = biological target: 4-aminobutyrate aminotransferase, mitochondrial (Rattus norvegicus) (UniProt P50554); assay: In vitro percentage inhibition activity against GABA-T enzyme at a concentration of 0.625 uM after 6 h
[3] = biological target: 4-aminobutyrate aminotransferase, mitochondrial (Rattus norvegicus) (UniProt P50554); assay: In vitro percentage inhibition activity against GABA-T enzyme at a concentration of 0.625 uM after 4.5 h
[4] = tested on: Rattus norvegicus; assay: Number of rats protected at a dose of 30 mg/Kg when given oral at 1 hr upon maximal electroshock seizure; Total number of rats = 4; assay type: functional
[5] = tested on: Rattus norvegicus; assay: Number of rats protected at a dose of 30 mg/Kg when given oral at 2 hr upon maximal electroshock seizure; Total number of rats = 4; assay type: functional
[6] = tested on: Rattus norvegicus; assay: Number of rats protected at a dose of 30 mg/Kg when given oral at 4 hr upon maximal electroshock seizure; Total number of rats = 4; assay type: functional
[7] = tested on: Rattus norvegicus; assay: Number of rats protected at a dose of 30 mg/Kg when given oral at 0.5 hr upon maximal electroshock seizure; Total number of rats = 4; assay type: functional
[8] = tested on: Rattus norvegicus; assay: Number of rats protected at a dose of 30 mg/Kg when given oral at 0.25 hr upon maximal electroshock seizure; Total number of rats = 4; assay type: functional
[9] = tested on: Rattus norvegicus; assay: Effect on GABA level in rat whole brain concentration after 2 hr post-treatment at a dose of 100 mg/Kg when given i.p.; Control 48.4; assay type: functional
[10] = tested on: Rattus norvegicus; assay: Effect on GABA level in rat whole brain concentration after 7 days post-treatment at a dose of 30 mg/Kg when given orally; Control 50.5; assay type: functional
[11] = tested on: Rattus norvegicus; assay: Toxic dose observed for anticonvulsant activity when given i.p., at 0.5 hr in rat upon neurotoxicity seizure; assay type: functional; conditions: ip
[12] = organism: Rattus norvegicus; assay: Ex vitro percentage inhibition activity against GABA-T enzyme at a concentration of 1.25 uM after 4.5 h; assay type: functional
[13] = organism: Rattus norvegicus; assay: Protective index between effective dose and toxic dose in rat; assay type: functional
[14] = tested on: Mus musculus; assay: Minimum dose required for anticonvulsant activity when given i.p., at 4 hr in mice upon maximal electroshock seizure; assay type: functional
[15] = tested on: Mus musculus; assay: Minimum dose required for anticonvulsant activity when given i.p., at 0.5 hr in mice upon maximal electroshock seizure; assay type: functional
[16] = tested on: Rattus norvegicus; assay: Effective dose required for anticonvulsant activity when given i.p., at 0.5 hr in rat upon maximal electroshock seizure; assay type: functional; conditions: ip
[17] = tested on: Mus musculus; assay: Minimum dose required for anticonvulsant activity when given i.p., at 0.5 hr in mice upon neurotoxicity seizure using rotarod test; assay type: functional
[18] = organism: Rattus norvegicus; assay: Ex vitro percentage inhibition activity against GABA-T enzyme at a concentration of 1.25 uM after 3 h; assay type: functional
[19] = organism: Rattus norvegicus; assay: Ex vitro percentage inhibition activity against GABA-T enzyme at a concentration of 1.25 uM after 6 h; assay type: functional
[20] = tested on: Mus musculus; assay: Minimum dose required for anticonvulsant activity when given i.p., at 0.5 hr in mice upon subcutaneous pentylenetetrazole seizure; assay type: functional
[21] = tested on: Mus musculus; assay: Minimum dose required for anticonvulsant activity when given i.p., at 0.5 hr in mice upon subcutaneous strychnine seizure; assay type: functional
[22] = tested on: Mus musculus; assay: Mean sleeping time evaluated for CNS study using the pentobarbital-induced narcosis model at a dose of 100 mg/Kg when given i.p., in mice (No. of animals 6)
[23] = tested on: Mus musculus; assay: Post treatment activity score for CNS study using a actophotometer at a dose of 100 mg/Kg after 1 hr when given i.p., in mice (No. of animals 6); Control (24h before) 281
[24] = tested on: Mus musculus; assay: Post treatment activity score for CNS study using a actophotometer at a dose of 100 mg/Kg after 0.5 hr when given i.p., in mice (No. of animals 6); Control (24h before) 281
[25] = tested on: Mus musculus; assay: Post treatment immobility time for CNS study using Porsolt's swimpool test at a dose of 100 mg/Kg after 1 hr when given i.p., in mice (No. of animals 6); Control (24h before) 132
[26] = tested on: Rattus norvegicus; assay: After discharge duration time when before administered in rat 2 at dose 100 mg/Kg when given i.p., upon preliminary hippocampal-kindling screen; Prodrug time 11-39 s; assay type: functional, Hippocampus
[27] = tested on: Rattus norvegicus; assay: Toxic dose observed for anticonvulsant activity when given i.p., at 1 h in rat upon neurotoxicity seizure; assay type: functional; conditions: ip
[28] = tested on: Rattus norvegicus; assay: After discharge duration time when after administered in rat 1 at dose 100 mg/Kg when given i.p., upon preliminary hippocampal-kindling screen; assay type: functional, Hippocampus
[29] = tested on: Rattus norvegicus; assay: After discharge duration time when after administered in rat 2 at dose 100 mg/Kg when given i.p., upon preliminary hippocampal-kindling screen; assay type: functional, Hippocampus
[30] = tested on: Rattus norvegicus; assay: After discharge duration time when before administered in rat 1 at dose 100 mg/Kg when given i.p., upon preliminary hippocampal-kindling screen; Prodrug time 26-42 s; assay type: functional, Hippocampus
[31] = tested on: Rattus norvegicus; assay: Seizure score after administration in rat 1 at dose 100 mg/Kg when given i.p., upon preliminary hippocampal-kindling screen; assay type: functional, Hippocampus
[32] = tested on: Rattus norvegicus; assay: Seizure score after administration in rat 2 at dose 100 mg/Kg when given i.p., upon preliminary hippocampal-kindling screen; assay type: functional, Hippocampus
[33] = tested on: Rattus norvegicus; assay: Seizure score before administration in rat 1 at dose 100 mg/Kg when given i.p., upon preliminary hippocampal-kindling screen; assay type: functional, Hippocampus
[34] = tested on: Rattus norvegicus; assay: Effective dose required for anticonvulsant activity when given i.p., at 1 hr in rat upon maximal electroshock seizure; assay type: functional; conditions: ip
[35] = organism: Rattus norvegicus; assay: Ex vitro percentage inhibition activity against GABA-T enzyme at a concentration of 5 uM after 3 h; assay type: functional
[36] = organism: Rattus norvegicus; assay: Ex vitro percentage inhibition activity against GABA-T enzyme at a concentration of 5 uM after 6 h; assay type: functional
[37] = organism: Rattus norvegicus; assay: Ex vitro percentage inhibition activity against GABA-T enzyme at a concentration of 5 uM after 4.5 h; assay type: functional
[38] = tested on: Rattus norvegicus; assay: Seizure score before administration in rat 2 at dose 100 mg/Kg when given i.p., upon preliminary hippocampal-kindling screen; […]; assay type: functional, Hippocampus
[39] = tested on: Mus musculus; assay: Minimum dose required for anticonvulsant activity when given i.p., at 2 hr in mice upon subcutaneous strychnine seizure; assay type: functional
[40] = tested on: Mus musculus; assay: Post treatment activity score for CNS study using a actophotometer at a dose of 100 mg/Kg after 1 hr when given i.p., in mice (No. of animals 6); Control (24h before) 202
[41] = tested on: Mus musculus; assay: Post treatment activity score for CNS study using a actophotometer at a dose of 100 mg/Kg after 0.5 hr when given i.p., in mice (No. of animals 6); Control (24h before) 202
[42] = tested on: Mus musculus; assay: Post treatment immobility time for CNS study using Porsolt's swimpool test at a dose of 100 mg/Kg after 1 hr when given i.p., in mice (No. of animals 6); Control (24h before) 173

4-aminobutyrate aminotransferase, mitochondrial (Rattus norvegicus), sequence (P50554 28-500 limits assumed): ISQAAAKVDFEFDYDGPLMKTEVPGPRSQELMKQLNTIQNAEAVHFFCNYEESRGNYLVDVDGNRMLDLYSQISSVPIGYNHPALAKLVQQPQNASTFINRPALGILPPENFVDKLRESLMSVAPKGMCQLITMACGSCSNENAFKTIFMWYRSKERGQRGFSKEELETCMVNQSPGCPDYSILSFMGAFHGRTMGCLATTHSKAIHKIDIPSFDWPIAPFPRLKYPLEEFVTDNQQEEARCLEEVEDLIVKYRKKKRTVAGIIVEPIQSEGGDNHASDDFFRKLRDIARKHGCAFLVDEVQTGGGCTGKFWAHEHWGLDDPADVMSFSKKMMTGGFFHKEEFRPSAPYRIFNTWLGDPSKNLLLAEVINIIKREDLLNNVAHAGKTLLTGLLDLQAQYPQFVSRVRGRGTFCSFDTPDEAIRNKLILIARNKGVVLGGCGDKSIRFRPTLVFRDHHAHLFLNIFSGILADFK

| SMILES | inhibition [1] | inhibition [2] | inhibition [3] | Activity [4] | Activity [5] | Activity [6] | Activity [7] | Activity [8] | Activity [9] | Activity [10] | PI [13] | MES [14] | MES [15] | NT [17] | PTZ seizure [20] | STY seizure [21] | Time [22] | further results |
| --- | --- | --- | --- | --- | --- | --- | --- | --- | --- | --- | --- | --- | --- | --- | --- | --- | --- | --- |
| Cc1cccc(C)c1NC(=O)N/N=C/c1ccccc1[N+](=O)[O-] | 53% | 40% | 0% | 2 | 2 | 2 | 2 | 2 | 84.7 ug/100mg of tissue | 81.6 ug/100mg of tissue | >4.3 | 300 mg/kg | 300 mg/kg | 300 mg/kg | 300 mg/kg | 100 mg/kg | 141 min | TD50 [11]: > 100 mg/kg; Inhibition [12]: 98%; ED50 [16]: 23.2 mg/kg; Inhibition [18]: 0%; Inhibition [19]: 23%; Activity [23]: 177; Activity [24]: 177; Activity [25]: 190 |
| Cc1cccc(C)c1NC(=O)N/N=C/c1cccc([N+](=O)[O-])c1 | 88% | 0% | 0% | 3 | 1 | 3 | 1 | 1 | 79.8 ug/100mg of tissue | 87.9 ug/100mg of tissue | >4 | 300 mg/kg | 100 mg/kg | 300 mg/kg | 300 mg/kg | 30 mg/kg | 147 min | ADD [26]: 39 s; TD50 [27]: > 120 mg/kg; ADD [28]: 52 s; ADD [29]: 59 s; ADD [30]: 42 s; Score [31]: 1; Score [32]: 5; Score [33]: 5; ED50 [34]: 29.7 mg/kg; Inhibition [35]: 0%; Inhibition [36]: 0%; Inhibition [37]: 0%; Score [38]: 4; STY seizure [39]: 100 mg/kg; Activity [40]: 131; Activity [41]: 129; Activity [42]: 231 |
